One substance from patent publication US20140066411A1, “PHARMACEUTICAL COMPOSITIONS FOR EXTENDED RELEASE OF AZO-BONDED 5-AMINOSALICYLIC ACID COMPOSITIONS” (Depomed, Inc., priority 2012, published 2014) can be followed below.

The nature of the data set: Dissolving of olsalazine in dissolution media. It counts as physicochemical. As for the experimental part: Formulation 4 tablets were also made using pharmaceutical grade olsalazine in a micronized form in order to test the effects of drug particle size on tablet manufacturing and the ensuing release profiles. In vitro release profiles were evaluated for Formulation 4 tablets made as described in Example 1 and for tablets made using the same formula and process except with micronized olsalazine.

Turning to olsalazine, the dissolving in media result is listed as “did not completely dissolve” (pH 4.5 acetate buffer) and “dissolves easily” (pH 7.5 phosphate buffer).
